Common to all, as to assay type: cell-based
One experiment has as its target hTRPML1 (Homo sapiens, UniProt Q9GZU1). The experiment is described as follows: TRPML1 fluorescent (Fluo-4) assay. Set-up: Secondary Screening: Fluo-4: hTRPML1: EC50 (M); HEK-293 Trex cells expressing hTRPML1. The following applies: activation; HEK-293 Trex cells expressing hTRPML1; read-out: Secondary Screening: Fluo-4: hTRPML1: EC50. The protocol: HEK-293 Trex cells were stably transfected with a construct consisting of the human coding sequence for TRPML1 cloned into the […] plasmid pCDNA5 T/O. Mutations were introduced into the TRPML1 sequence to facilitate expression on the cell surface (Silvia Vergarajauregui, Rosa Puertollano Traffic. 2006 March; 7(3): 337-353). Briefly, the cells are cultured in 150 mm round tissue culture dishes containing 20 mL of media. The day before the assay the cells are rinsed with DPBS—Ca—Mg and then treated briefly with Trypsin-EDTA. The Trypsin-EDTA is diluted with growth media, and cells are counted. 38×10^6 cells are re-plated into 150 mm round tissue culture dishes in media containing 0.5 ug/mL doxycycline to induce expression of hTRPML1.
The day of the experiment cells are lifted from the plates as above and collected by centrifugation. The cells are then suspended in dye loading buffer consisting of Ringer's solution supplemented with 0.1% Pluronic Acid and 1 micromolar Fluo4-AM dye. Cells are loaded for ˜60 minutes in the dark with occasional mixing. The cells are collected by centrifugation, the loading media aspirated, and the cells resuspended in 25 mL Ringer's solution and incubated ˜60 minutes in the dark. The cells are again collected by centrifugation, rinsed in Ringer's Solution and resuspended to 0.2×10^6 cells/mL in modified Ringer's solution containing 10 mM calcium.
Compounds are dissolved to a concentration of 10 millimolar with DMSO. Compound plates are created by dispensing compounds into 384 well black wall clear bottom plates (Greiner 781091). Positive and negative controls are included on each plate. Typically, different amounts of each compound are tested ranging from 100 nanoMoles (20 micromolar final concentration) decreasing in half-log steps to 31 picoMoles (6 nanomolar final concentration). Each concentration is typically tested in triplicate.
50 microliters of dye-loaded cells are dispensed into each well of the compound assay plate created above. The fluorescence in each well is then determined with an excitation wavelength of 480 nm and an emission wavelength of 540 nm using either a Molecular Devices SpectraMax multimode plate reader or a Hamamatsu FDSS/uCell plate imager.
The resulting fluorescence for each well is exported as an ascii file and loaded into our LIMS for analysis. The percent activity of each compound at each concentration is determined by comparison to the positive and negative control wells included in each plate.
(§1) EC50 values were calculated using a non-linear regression of Prism.

For the next experiment, the target named is T1, hTRPML3 (Homo sapiens, UniProt Q8TDD5).
T1 construct: expressed in transfected cells; host or cells: HEK-293 Trex (by analogy, 'performed as above')
T1 sequence (Q8TDD5 1-553): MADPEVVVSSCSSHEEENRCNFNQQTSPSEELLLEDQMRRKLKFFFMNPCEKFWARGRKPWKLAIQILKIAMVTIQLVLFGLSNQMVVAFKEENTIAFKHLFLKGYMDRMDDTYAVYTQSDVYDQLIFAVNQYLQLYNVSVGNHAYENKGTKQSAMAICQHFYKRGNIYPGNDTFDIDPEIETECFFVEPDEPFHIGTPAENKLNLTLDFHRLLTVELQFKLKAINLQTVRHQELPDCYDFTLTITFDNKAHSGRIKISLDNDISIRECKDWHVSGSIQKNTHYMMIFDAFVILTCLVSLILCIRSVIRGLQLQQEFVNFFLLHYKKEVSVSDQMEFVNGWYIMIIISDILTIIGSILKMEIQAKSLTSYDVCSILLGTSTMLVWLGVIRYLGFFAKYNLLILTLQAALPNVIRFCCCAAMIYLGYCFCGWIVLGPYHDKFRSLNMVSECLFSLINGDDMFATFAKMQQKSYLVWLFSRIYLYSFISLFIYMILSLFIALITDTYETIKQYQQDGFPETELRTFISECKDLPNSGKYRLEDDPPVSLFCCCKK
The experiment is described as follows: TRPML3 fluorescent (Fluo-4) assay. The following applies: activation; read-out: Secondary Screening: Fluo-4: hTRPML3: EC50. As to the method:
(§2) Assays for TRPML2 and TRPML3 were performed as above for TRPML1, by substituting the appropriate TRPML2 or TRPML3 subtype for the TRPML1.
as §1

The target of another experiment is T2, hTRPML2 (Homo sapiens, UniProt Q8IZK6).
T2 construct: expressed in transfected cells; host or cells: HEK-293 Trex (by analogy, 'performed as above')
T2 sequence (Q8IZK6 1-566): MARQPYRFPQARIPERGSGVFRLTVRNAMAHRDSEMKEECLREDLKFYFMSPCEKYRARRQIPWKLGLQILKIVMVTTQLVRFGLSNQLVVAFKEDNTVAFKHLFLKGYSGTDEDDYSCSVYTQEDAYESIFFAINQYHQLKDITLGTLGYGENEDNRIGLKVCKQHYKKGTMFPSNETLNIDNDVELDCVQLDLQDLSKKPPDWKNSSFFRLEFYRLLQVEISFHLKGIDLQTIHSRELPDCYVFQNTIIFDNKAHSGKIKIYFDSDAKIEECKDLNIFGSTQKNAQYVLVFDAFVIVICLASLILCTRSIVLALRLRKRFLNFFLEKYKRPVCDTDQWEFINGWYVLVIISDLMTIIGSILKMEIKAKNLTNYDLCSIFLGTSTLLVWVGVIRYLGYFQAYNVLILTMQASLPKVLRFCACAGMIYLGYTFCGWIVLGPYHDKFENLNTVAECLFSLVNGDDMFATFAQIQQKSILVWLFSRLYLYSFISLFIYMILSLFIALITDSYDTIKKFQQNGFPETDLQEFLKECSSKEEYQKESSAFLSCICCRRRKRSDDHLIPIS
In words: TRPML2 fluorescent (Fluo-4) assay. The following applies: activation; read-out: Secondary Screening: Fluo-4: hTRPML2: EC50. The protocol:
as §2, §1

Each structure is given as a SMILES string.

Chain of hTRPML1 (Q9GZU1 whole entry L15A/L16A/L577A/L578A, form open): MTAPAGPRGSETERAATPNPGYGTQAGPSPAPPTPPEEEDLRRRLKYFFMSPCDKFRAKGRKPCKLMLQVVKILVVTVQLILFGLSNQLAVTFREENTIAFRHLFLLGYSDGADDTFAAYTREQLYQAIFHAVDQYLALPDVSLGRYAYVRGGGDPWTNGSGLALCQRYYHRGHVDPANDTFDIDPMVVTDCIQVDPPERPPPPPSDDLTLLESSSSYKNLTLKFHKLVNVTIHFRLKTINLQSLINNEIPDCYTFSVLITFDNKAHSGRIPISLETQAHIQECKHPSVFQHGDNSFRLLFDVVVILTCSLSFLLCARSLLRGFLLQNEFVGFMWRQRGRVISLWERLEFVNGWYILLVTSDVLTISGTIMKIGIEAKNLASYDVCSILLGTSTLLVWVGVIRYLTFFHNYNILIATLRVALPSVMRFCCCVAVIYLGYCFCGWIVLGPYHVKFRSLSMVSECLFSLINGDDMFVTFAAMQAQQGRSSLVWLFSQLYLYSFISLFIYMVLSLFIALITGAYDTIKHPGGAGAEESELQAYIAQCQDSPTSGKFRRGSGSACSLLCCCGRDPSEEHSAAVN

Broadly, the EC50 is the concentration needed to bring the measured effect to its halfway point. In the case of `Cc1ccc(S(=O)(=O)N[C@H]2CCCC[C@@H]2N2CCN(c3ccc(Cl)cc3F)CC2)cc1` (relative stereo) [Compound 117, trans-N-(2-(4-(4-chloro-2-fluoro-phenyl)piperazin-1-yl)cyclohexyl)-4-methylbenzene-sulfonamide], the EC50 on hTRPML1 was 0.3 to 1 µM; on hTRPML3, less than 0.3 µM.

Take `CN(C)S(=O)(=O)c1ccc(S(=O)(=O)Nc2ccccc2N2CCC3(CN(c4ccc(Cl)cc4F)C3)C2)cc1` [Compound 102, N^1-(2-(2-(4-chloro-2-fluorophenyl)-2,6-diazaspiro[3.4]octan-6-yl)phenyl)-N^4,N^4-dimethylbenzene-1,4-disulfonamide]: the EC50 at hTRPML1 lay in the range of 0.3 to 1 µM.

For the molecule `CN(c1ccccc1NS(=O)(=O)c1ccc(S(=O)(=O)N(C)C)cc1)[C@H]1CCN(c2ccc(Cl)cc2F)C1` [Compound 110, (S)-N^1-(2-((1-(4-chloro-2-fluorophenyl)pyrrolidin-3-yl)(methyl)amino)phenyl)-N^4,N^4-dimethylbenzene-1,4-disulfonamide], the EC50 on hTRPML1 and at hTRPML3 was less than 0.3 µM in each case.

Regarding `CN(C)S(=O)(=O)c1ccc(S(=O)(=O)N[C@H]2CCCC[C@H]2N2CCN(c3ccc(Cl)cc3F)CC2)cc1` (stereo in doubt) [Compound 109, N^1-((1S,2R)-2-(4-(4-Chloro-2-fluorophenyl)piperazin-1-yl)cyclohexyl)-N^4,N^4-dimethylbenzene-1,4-disulfonamide], the EC50 was 1 to 5 µM at hTRPML1 and 0.3 to 1 µM at hTRPML3.

As to `CN(C)S(=O)(=O)c1ccc(S(=O)(=O)Cc2ccccc2N2CCN(c3ccc(Cl)cc3F)CC2)cc1` [Compound 106, 4-(2-(4-(4-Chloro-2-fluorophenyl)piperazin-1-yl)benzylsulfonyl)-N,N-dimethylbenzenesulfonamide], the concentration giving a half-maximal response (EC50) at hTRPML1 is less than 0.3 µM.

`CN(C)S(=O)(=O)c1ccc(S(=O)(=O)Nc2ccccc2N2C[C@H]3C[C@@H]2CN3c2ccc(Cl)cc2F)cc1` [Compound 107, N^1-(2-((1R,4R)-5-(4-chloro-2-fluorophenyl)-2,5-diazabicyclo[2.2.1]heptan-2-yl)phenyl)-N^4,N^4-dimethylbenzene-1,4-disulfonamide]: on hTRPML1, the EC50 was in the range of 0.3 to 1 µM.

For `CN(c1ccccc1NS(=O)(=O)c1ccc(S(=O)(=O)N(C)C)cc1)C1CCN(c2ccccc2F)C1` (stereo not shown) [Compound 112, N^1-(2-((1-(2-Fluorophen-yl)pyrrolidin-3-yl)(meth-yl)amino)phenyl)-N^4,N^4-dimethylbenzene-1,4-disulfonamide], the results for the EC50 on hTRPML1 and on hTRPML3 were 0.3 to 1 µM and less than 0.3 µM, respectively.

`CN(C)S(=O)(=O)c1ccc(S(=O)(=O)Nc2ccccc2N2CCN(C34CC(C3)C4)CC2)cc1` [Compound 115, N^1-(2-(4-(bicyclo[1.1.1]pentan-1-yl)piperazin-1-yl)phenyl)-N^4,N^4-dimethylbenzene-1,4-disulfonamide]: the EC50 on hTRPML1 was in the range of 1 to 5 µM; at hTRPML3, 0.3 to 1 µM.

For `CN(C)S(=O)(=O)c1ccc(S(=O)(=O)Nc2ccccc2N2CCC3(CCN(c4ccc(Cl)cc4F)C3)C2)cc1` (stereo not shown) [Compound 103, N^1-(2-(7-(4-chloro-2-fluorophenyl)-2,7-diazaspiro[4.4]nonan-2-yl)phenyl)-N^4,N^4-dimethylbenzene-1,4-disulfonamide], the EC50 on hTRPML1 lay in the range of 0.3 to 1 µM.

On to `CN(C)S(=O)(=O)c1ccc(S(=O)(=O)N[C@H]2CCCC[C@@H]2N2CCN(c3ccccc3F)CC2)cc1` (relative stereo) [Compound 116, trans-N^1-(2-(4-(2-fluorophenyl)piperazin-1-yl)cyclohexyl)-N^4,N^4-dimethylbenzene-1,4-disulfonamide], for which the EC50 on hTRPML1 lay in the range of 1 to 5 µM; at hTRPML3, 0.3 to 1 µM.

Regarding `CN(C1CCCC[C@@H]1NS(=O)(=O)c1ccc(S(=O)(=O)N(C)C)cc1)[C@@H]1CCN(c2ccc(Cl)cc2F)C1` (stereo partly drawn) [Compound 118, trans-N^1-(2-(((R)-1-(4-Chloro-2-fluorophenyl)pyrrolidin-3-yl)(methyl)amino)cyclohexyl)-N^4,N^4-dimethylbenzene-1,4-disulfonamide], the EC50 on hTRPML1 was less than 0.3 µM; at hTRPML2, greater than 5 µM.

As for `CN(C)S(=O)(=O)c1ccc(S(=O)(=O)N[C@H]2CCCC[C@@H]2N2CCN(c3ccc(Cl)cc3F)CC2)cc1` [Compound 105, N^1-((1S,2S)-2-(4-(4-chloro-2-fluorophenyl)piperazin-1-yl)cyclohexyl)-N^4,N^4-dimethylbenzene-1,4-disulfonamide], the EC50 on hTRPML1 lay within 0.3 to 1 µM.

With `CN(c1ccccc1NS(=O)(=O)c1ccc(S(=O)(=O)N(C)C)cc1)[C@@H]1CCN(c2ccc(Cl)cc2F)C1` [Compound 111, (R)-N^1-(2-((1-(4-chloro-2-fluorophenyl)pyrrolidin-3-yl)(methyl)amino)phenyl)-N^4,N^4-dimethylbenzene-1,4-disulfonamide], the EC50 is 0.3 to 1 µM on hTRPML1 and less than 0.3 µM on hTRPML3.

As to `CN(c1ccc(Cl)cc1F)C1CCN(c2ccccc2NS(=O)(=O)c2ccc(S(=O)(=O)N(C)C)cc2)C1` (stereo not shown) [Compound 104, N^1-(2-(3-((4-chloro-2-fluorophenyl)(methyl)amino)pyrrolidin-1-yl)phenyl)-N^4,N^4-dimethylbenzene-1,4-disulfonamide], on hTRPML1, the EC50 was less than 0.3 µM.

Turning to `CN(C)S(=O)(=O)c1ccc(S(=O)(=O)Nc2ccccc2C2CCN(c3ccc(Cl)cc3F)CC2)cc1` [Compound 108, N^1-(2-(1-(4-chloro-2-fluorophenyl)piperidin-4-yl)phenyl)-N^4,N^4-dimethylbenzene-1,4-disulfonamide], the results for the EC50 at hTRPML1 and on hTRPML3 were 1 to 5 µM and 0.3 to 1 µM, respectively.

Consider `CN(c1ccccc1NS(=O)(=O)c1ccc(S(=O)(=O)N(C)C)cc1)C1CCN(C(=O)OC(C)(C)C)C1` (stereo not shown) [Compound 114, tert-butyl 3-((2-((4-(N,N-dimethylsulfamoyl)phenyl)sulfonamido)phenyl)(methyl)amino)pyrrolidine-1-carboxylate], for which the EC50 is 1 to 5 µM at hTRPML1 and 0.3 to 1 µM on hTRPML3.

As to `CN([C@H]1CCN(c2ccc(Cl)cc2F)C1)[C@H]1CCCC[C@@H]1NS(=O)(=O)c1ccc(S(=O)(=O)N(C)C)cc1` (stereo in doubt) [Compound 119, trans-N^1-(2-(((S)-1-(4-chloro-2-fluorophenyl)-pyrrolidin-3-yl)(methyl)-amino)cyclohexyl)-N^4,N^4-dimethylbenzene-1,4-disulfonamide], the 50% effective concentration (EC50) at hTRPML1 was less than 0.3 µM; on hTRPML2 it was greater than 5 µM.

Source of the values: patent US20240299348A1, “MODULATORS OF TRPML, THEIR COMPOSITIONS AND METHODS OF USE” (Caraway Therapeutics, Inc., priority 2021, published 2024).
